From patent US20250051347A1, “BIFUNCTIONAL CHIMERIC HETEROCYCLIC COMPOUND AND USE THEREOF AS ANDROGEN RECEPTOR DEGRADER” (Hinova Pharmaceuticals, Inc., priority 2021, published 2025)
Read-outs that look alike come from different tables or passages of the source.

How the values were obtained:
[1] = biological target: T1, androgen receptor (AR) splicing variant AR-v7 (Homo sapiens, UniProt P10275); assay: Degradation activity on androgen receptor splicing variant AR-v7 in 22RV1 cells (ELISA); type: cell-based; conditions: AR-v7 degradation in 22RV1 cells, 48 h, class symbols
T1 construct: The degradation activity of compounds on AR-v7 in 22RV1 cells; host or cells: 22RV1 cells
T1 sequence (P10275 1-644 isoform P10275-3): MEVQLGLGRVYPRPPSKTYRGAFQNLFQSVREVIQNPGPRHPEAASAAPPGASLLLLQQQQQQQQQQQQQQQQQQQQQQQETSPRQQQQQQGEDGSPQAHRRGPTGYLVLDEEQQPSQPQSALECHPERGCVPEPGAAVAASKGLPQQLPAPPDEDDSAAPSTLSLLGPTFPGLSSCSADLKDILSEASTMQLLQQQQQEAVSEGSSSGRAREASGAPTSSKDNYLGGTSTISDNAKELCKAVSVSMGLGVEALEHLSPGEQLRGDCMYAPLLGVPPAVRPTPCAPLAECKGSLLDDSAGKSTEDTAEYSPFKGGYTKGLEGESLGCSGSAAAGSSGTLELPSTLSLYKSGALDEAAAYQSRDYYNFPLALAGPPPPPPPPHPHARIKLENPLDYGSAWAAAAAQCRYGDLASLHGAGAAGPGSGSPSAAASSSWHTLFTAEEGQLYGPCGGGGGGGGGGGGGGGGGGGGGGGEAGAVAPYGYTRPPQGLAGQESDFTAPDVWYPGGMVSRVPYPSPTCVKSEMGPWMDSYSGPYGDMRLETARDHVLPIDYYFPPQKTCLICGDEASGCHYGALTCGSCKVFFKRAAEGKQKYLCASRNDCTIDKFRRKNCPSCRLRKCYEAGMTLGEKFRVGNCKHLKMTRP

[2] = test system: 22RV1 cells
[3] = Homo sapiens, 22Rv1, 144 h, read-out: 22RV1 IC50 (nM), 22RV1 cells, 6 days culture, CCK-8, OD 450 nm
[4] = Homo sapiens, 22Rv1, 144 h, read-out: 22RV1 IC50 (nM)

Row | Compound | DC50 [1] [nM] | IC50 [2, 3] [nM] | IC50 [2, 4] [nM] | IC50 ([2]; read-out: 22RV1 IC50, 22RV1 cells, 6 days culture, CCK-8, OD 450 nm) [nM]
1 | COc1nccc(COc2ccc(C(C)(C)c3ccc(O[C@H]4C[C@H](Nc5ccc6c(c5)C(=O)N(C5CCC(=O)NC5=O)C6=O)C4)cc3)cc2)n1 (stereo partly drawn) [Example 449, 2-(2,6-dioxopiperidin-3-yl)-5-(((1r,3r)-3-(4-(2-(4-((2-methoxypyrimidin-4-yl)methoxy)phenyl)propan-2-yl)phenoxy)cyclobutyl)amino) isoindolin-1,3-dione] | 11 to 100 | 10 |  | 
2 | CC1CN(c2nccc(COc3ccc(C(C)(C)c4ccc(O[C@H]5C[C@H](Nc6ccc7c(c6)C(=O)N(C6CCC(=O)NC6=O)C7=O)C5)cc4)cc3)n2)CCN1C (stereo partly drawn) [Example 450, 5-(((1r,3r)-3-(4-(2-(4-((2-(3,4-dimethylpiperazin-1-yl)pyrimidin-4-yl)methoxy)phenyl)propan-2-yl)phenoxy)cyclobutyl)amino)-2-(2,6-dioxopiperidin-3-yl)isoindolin-1,3-dione] | 11 to 100 | 8 |  | 
3 | CC(C)(c1ccc(OCc2ccnc(N3CCNCC3)n2)cc1)c1ccc(OC2CC(Nc3ccc4c(c3)C(=O)N(C3CCC(=O)NC3=O)C4=O)C2)cc1 (stereo not drawn) [Example 451, 2-(2,6-dioxopiperidin-3-yl)-5-((3-(4-(2-(4-((2-(piperazin-1-yl)pyrimidin-4-yl)methoxy)phenyl)propan-2-yl)phenoxy)cyclobutyl)amino)isoindolin-1,3-dione] | < 10 | 11 |  | 
4 | CC1CN(c2nccc(COc3ccc(C(C)(C)c4ccc(OC5CC(Nc6ccc7c(c6)C(=O)N(C6CCC(=O)NC6=O)C7=O)C5)cc4)cc3)n2)CC(C)N1 (stereo not drawn) [Example 452, 5-((3-(4-(2-(4-((2-(3,5-dimethylpiperazin-1-yl)pyrimidin-4-yl)methoxy)phenyl)propan-2-yl)phenoxy)cyclobutyl)amino)-2-(2,6-dioxopiperidin-3-yl)isoindolin-1,3-dione] | 11 to 100 | 8 |  | 
5 | CC(C)(c1ccc(OCc2ccnc(N3CC(O)C3)n2)cc1)c1ccc(O[C@H]2C[C@@H](Nc3ccc4c(c3)C(=O)N(C3CCC(=O)NC3=O)C4=O)C2)cc1 (stereo partly drawn) [Example 453] | < 10 | 6 |  | 
6 | CC(C)(c1ccc(OCc2ccnc(-n3cnnc3)n2)cc1)c1ccc(O[C@H]2C[C@@H](Nc3ccc4c(c3)C(=O)N(C3CCC(=O)NC3=O)C4=O)C2)cc1 (stereo partly drawn) [Example 461] | < 10 | 11 |  | 
7 | Cc1nnc(-c2cccc(COc3ccc(C(C)(C)c4ccc(O[C@H]5C[C@H](Nc6ccc7c(c6)C(=O)N(C6CCC(=O)NC6=O)C7=O)C5)cc4)cc3)n2)o1 (stereo partly drawn) [Example 463] | < 10 | 11 |  | 
8 | Cc1nnc(-c2nccc(COc3ccc(C(C)(C)c4ccc(O[C@H]5C[C@@H](Nc6ccc7c(c6)C(=O)N(C6CCC(=O)NC6=O)C7=O)C5)cc4)cc3)n2)o1 (stereo partly drawn) [Example 465] | < 10 | 3 |  | 
9 | CC(C)(c1ccc(OCc2ccnc(-c3nnco3)n2)cc1)c1ccc(O[C@H]2C[C@H](Nc3ccc4c(c3)C(=O)N(C3CCC(=O)NC3=O)C4=O)C2)cc1 (stereo partly drawn) [Example 468, 5-(((1r,3r)-3-(4-(2-(4-((2-(1,3,4-oxadiazol-2-yl)pyrimidin-4-yl)methoxy)phenyl)propan-2-yl)phenoxy)cyclobutyl)amino)-2-(2,6-dioxopiperidin-3-yl)isoindolin-1,3-dione] | < 10 | 5 |  | 
10 | CC(C)(c1ccc(OCc2cccc(-c3nnco3)n2)cc1)c1ccc(O[C@H]2C[C@H](Nc3ccc4c(c3)C(=O)N(C3CCC(=O)NC3=O)C4=O)C2)cc1 (stereo partly drawn) [Example 470, 5-(((1r,3r)-3-(4-(2-(4-((6-(1,3,4-oxadiazol-2-yl)pyridin-2-yl)methoxy)phenyl)propan-2-yl)phenoxy)cyclobutyl)amino)-2-(2,6-dioxopiperidin-3-yl)isoindolin-1,3-dione] | < 10 | 7 |  | 
11 | CC(C)(c1ccc(Oc2ccnc(-n3ccnn3)n2)cc1)c1ccc(O[C@H]2C[C@H](Nc3ccc4c(c3)C(=O)N(C3CCC(=O)NC3=O)C4=O)C2)cc1 (stereo partly drawn) [Example 471, 5-(((1r,3r)-3-(4-(2-(4-((2-(1H-1,2,3-triazol-1-yl)pyrimidin-4-yl)oxy)phenyl)propan-2-yl)phenoxy)cyclobutyl)amino)-2-(2,6-dioxopiperidin-3-yl)isoindolin-1,3-dione] | < 10 | 17 |  | 
12 | Cc1nnc(-c2ncc(Oc3ccc(C(C)(C)c4ccc(O[C@H]5C[C@H](Nc6ccc7c(c6)C(=O)N(C6CCC(=O)NC6=O)C7=O)C5)cc4)cc3)cn2)o1 (stereo partly drawn) [Example 473] | 11 to 100 | 5 |  | 
13 | CC(C)(c1ccc(Oc2cnc(-n3ccnn3)nc2)cc1)c1ccc(O[C@H]2C[C@H](Nc3ccc4c(c3)C(=O)N(C3CCC(=O)NC3=O)C4=O)C2)cc1 (stereo partly drawn) [Example 476] | 11 to 100 | 14 |  | 
14 | CC(C)(c1ccc(Oc2cncnc2)cc1)c1ccc(O[C@H]2C[C@H](Nc3ccc4c(c3)C(=O)N(C3CCC(=O)NC3=O)C4=O)C2)cc1 (stereo partly drawn) [Example 477, 2-(2,6-dioxopiperidin-3-yl)-5-(((1r,3r)-3-(4-(2-(4-(pyrimidin-5-yloxy)phenyl)propan-2-yl)phenoxy)cyclobutyl)amino)isoindolin-1,3-dione] | < 10 | 9 |  | 
15 | CC(C)(c1ccc(Oc2ccc(CN3CC(F)C3)nn2)cc1)c1ccc(O[C@H]2C[C@H](Nc3ccc4c(c3)C(=O)N(C3CCC(=O)NC3=O)C4=O)C2)cc1 (stereo partly drawn) [Example 478] | < 10 | 6 |  | 
16 | Cc1nc(-c2ncc(Oc3ccc(C(C)c4ccc(O[C@H]5C[C@H](Nc6ccc7c(c6)C(=O)N(C6CCC(=O)NC6=O)C7=O)C5)cc4)cc3)cn2)no1 (stereo partly drawn) [Example 480] | < 10 | 12 |  | 
17 | CC(=O)c1nccc(COc2ccc(C(C)(C)c3ccc(O[C@H]4C[C@@H](Nc5ccc6c(c5)C(=O)N(C5CCC(=O)NC5=O)C6=O)C4)cc3)cc2)n1 (stereo partly drawn) [Example 491] | < 10 |  | 4 | 
18 | CC(O)c1nccc(COc2ccc(C(C)(C)c3ccc(O[C@H]4C[C@@H](Nc5ccc6c(c5)C(=O)N(C5CCC(=O)NC5=O)C6=O)C4)cc3)cc2)n1 (stereo partly drawn) [Example 492] | < 10 | 7 |  | 
19 | CC(C)(c1ccc(NC2CC(Nc3ccc4c(c3)C(=O)N(C3CCC(=O)NC3=O)C4=O)C2)cc1)c1ccc(OCc2ccnc(N3CC4(COC4)C3)n2)cc1 (stereo not drawn) [Example 494, 5-((3-((4-(2-(4-((2-(2-oxa-6-azaspiro[3.3]heptan-6-yl)pyrimidin-4-yl)methoxy)phenyl)propan-2-yl)phenyl)amino)cyclobutyl)amino)-2-(2,6-dioxopiperidin-3-yl)isoindolin-1,3-dione] | < 10 | 7 |  | 
20 | CC(CNc1ccc2c(c1)C(=O)N(C1CCC(=O)NC1=O)C2=O)COc1ccc(C(C)(C)c2ccc(OCc3ccnc(N4CC5(COC5)C4)n3)cc2)cc1 (stereo not drawn) [Example 496, 5-((3-(4-(2-(4-((2-(2-oxa-6-azaspiro[3.3]heptan-6-yl)pyrimidin-4-yl)methoxy)phenyl)propan-2-yl)phenoxy)-2-methylpropyl)amino)-2-(2,6-dioxopiperidin-3-yl)isoindolin-1,3-dione] | < 10 |  | 61 | 
21 | CC(C)(c1ccc(OCc2ccnc(N3CC4(COC4)C3)n2)cc1)c1ccc(C(=O)NC2CN(c3ccc4c(c3)C(=O)N(C3CCC(=O)NC3=O)C4=O)C2)cc1 (stereo not drawn) [Example 506, 4-(2-(4-((2-(2-oxa-6-azaspiro[3.3]heptan-6-yl)pyrimidin-4-yl)methoxy)phenyl)propan-2-yl)-N-(1-(2-(2,6-dioxopiperidin-3-yl)-1,3-dioxoisoindolin-5-yl)azetidin-3-yl)benzamide] | < 10 | 4 |  | 
22 | Cc1nc(-c2ncc(F)cc2Oc2ccc(C(C)(C)c3ccc(O[C@H]4C[C@H](Nc5ccc6c(c5)C(=O)N(C5CCC(=O)NC5=O)C6=O)C4)cc3)cc2)no1 (stereo partly drawn) [Example 512] | < 10 | 8 |  | 
23 | CC(C)(c1ccc(Oc2nnc(N3CCOCC3)s2)cc1)c1ccc(O[C@H]2C[C@H](Nc3ccc4c(c3)C(=O)N(C3CCC(=O)NC3=O)C4=O)C2)cc1 (stereo partly drawn) [Example 513] | < 10 | 12 |  | 
24 | CC(C)(c1ccc(Oc2cc(F)cnc2-n2ccnn2)cc1)c1ccc(O[C@H]2C[C@H](Nc3ccc4c(c3)C(=O)N(C3CCC(=O)NC3=O)C4=O)C2)cc1 (stereo partly drawn) [Example 517] | < 10 |  |  | 16
25 | CC(c1ccc(Oc2cnc(-n3nccn3)nc2)cc1)c1ccc(O[C@H]2C[C@H](Nc3ccc4c(c3)C(=O)N(C3CCC(=O)NC3=O)C4=O)C2)cc1 (stereo partly drawn) [Example 518] | < 10 | 13 |  | 
26 | CC(O)c1ccc(Oc2ccc(C(C)(C)c3ccc(O[C@H]4C[C@@H](Nc5ccc6c(c5)C(=O)N(C5CCC(=O)NC5=O)C6=O)C4)cc3)cc2)nn1 (stereo partly drawn) [Example 522] | 11 to 100 | 7 |  | 
27 | CC(=O)c1ccc(Oc2ccc(C(C)(C)c3ccc(O[C@H]4C[C@@H](Nc5ccc6c(c5)C(=O)N(C5CCC(=O)NC5=O)C6=O)C4)cc3)cc2)nn1 (stereo partly drawn) [Example 523] | < 10 | 6 |  | 
